Patent publication US20250304538A1, “PROCESS OF PREPARING REMIBRUTINIB SUBSTANTIALLY FREE OF NITROSAMINE IMPURITY” (NOVARTIS AG, priority 2024, published 2025)
“Also recorded” adds a separate entry of the source.

How the values were obtained:
[1] = Stability of intermediate F8: nitrosamine content overtime (air exposure, storage); type: physicochemical; details: upon exposure to the air or upon storage
Description: • Limit-test by LC-MS (SIM mode), AJS-ES, positive mode, SIM Ion: 483.2 [M+H]+ • Column: YMC-Triart C18, 100×3.0 mm, particle size 1.9 μm, 12 nm • Mobile phase A: Dissolve 0.315 g of Ammonium formate in 1000 mL of water, add 0.5 mL of formic acid • Mobile phase B: Methanol • Sample solvent: Methanol+0.2% (v/v) Formic acid • Sample solution: approx. 100 mg of the sample in 20 mL • Flow: 0.6 mL/min • Injection volume: 3 μL • Autosampler cooled, 8° C. • Column temperature. 80° C.
Same method was used to determine the level of nitrosamine content in intermediate F8, in salts or in solvate of LOU064.
The content of nitrosamine in intermediate F8 was determined using method described in Example 1.

[2] = Accelerated predictive stability (APS) of LOU064 drug substance, open dish; type: physicochemical; details: all APS open dish conditions
Description: In order to assess the stability behavior of the nitrosamine impurity (N-(3-(6-amino-5-(2(methyl)(nitroso)amino)ethoxy)pyrimidin-4-yl)-5-fluoro-2-methylphenyl)-4-cyclopropyl-2-fluorobenzamide) in LOU064 drug substance, an accelerated predictive stability (APS) was performed.
A statistical based approach, Accelerated Predictive Stability (APS), using the humidity modified Arrhenius equation [Waterman and al., International Journal of Pharmaceutics 293 (1-2), 101-125 (2005)] is applied to understand stability behavior and predict the retest period. […] Short studies are conducted on open dish samples of representative batch (es) of drug substance at accelerated conditions using a wide range of temperatures and humidity with the goal of reaching the specification limit for the identified retest period limiting attributes at each condition as detailed below. […] The humidity corrected Arrhenius equation reflects both the influence of the temperature, and the moisture on the kinetics of the degradation product formation. The resulting open-dish data are fitted to a humidity-corrected Arrhenius equation^1 using ASAPprime® (current version 6.0): […]
3 batches of LOU064 drug substance were placed in open dish under the protocol summarized below:
(§1) The pulled samples were analyzed by HPLC-MS as per method described in example 1 and reported below in tables 9 and 10.

[3] = APS of LOU064 drug substance, closed container with or without nitrogen purge; type: physicochemical; details: 60-80 °C, up to 27 days
Description: Samples of batches of LOU064 drug substance were prepared in duplicated in closed container, with one sample being purged with nitrogen and the other not.
as §1

[4] = test system: Salmonella typhimurium strains TA98, TA100, TA1535 and TA1537; assay: Enhanced Ames Test (EAT), pre-incubation method, Salmonella strains; type: cell-based
Description: N-(3-(6-amino-5-(2(methyl)(nitroso)amino)ethoxy)pyrimidin-4-yl)-5-fluoro-2-methylphenyl)-4-cyclopropyl-2-fluorobenzamide was evaluated in the EAT performed under GLP following the EMA and FDA guidance (2023) for the EAT conditions for N-nitrosamines.
In this study N-(3-(6-amino-5-(2(methyl)(nitroso)amino)ethoxy)pyrimidin-4-yl)-5-fluoro-2-methylphenyl)-4-cyclopropyl-2-fluorobenzamide was evaluated for mutations in Salmonella typhimurium strains TA98, TA100, TA1535 and TA1537 and Escherichia coli strain WP2 uvrA pKM101, both in the absence and presence of 30% rat and hamster metabolic activation (β-naphthoflavone/phenobarbital-induced rat and hamster liver post-mitochondrial S-9 fraction). The test used pre-incubation method (30 minutes). N-(3-(6-amino-5-(2(methyl)(nitroso)amino)ethoxy)pyrimidin-4-yl)-5-fluoro-2-methylphenyl)-4-cyclopropyl-2-fluorobenzamide was formulated in dimethyl sulfoxide (DMSO) at concentrations of 5, 16, 50, 160, 500, 1600 and 5000 μg/plate.

CNCCOc1c(N)ncnc1-c1cc(F)cc(NC(=O)c2ccc(C3CC3)cc2F)c1C [F8]
content of nitrosamine in intermediate F8 (trend) [1]: increased overtime

C=CC(=O)N(C)CCOc1c(N)ncnc1-c1cc(F)cc(NC(=O)c2ccc(C3CC3)cc2F)c1C [LOU064 drug substance, N-(3-(6-Amino-5-(2-(N-methylacrylamido)ethoxy)pyrimidin-4-yl)-5-fluoro-2-methylphenyl)-4-cyclopropyl-2-fluorobenzamide]
stability behavior of the nitrosamine impurity (in words) [2]: stable
nitrosamine, stored closed under nitrogen versus closed without nitrogen (in words) [3]: no difference observed beyond analytical variability

CN(CCc1ccccc1)N=O [MNPA, N-methyl-N-nitroso-(2-phenylethyl)amine, reference compound]
Increases (mutations) ([4]; strain TA98, presence of hamster S-9): up to 1.9

Cc1c(NC(=O)c2ccc(C3CC3)cc2F)cc(F)cc1-c1ncnc(N)c1OCCN(C)N=O [N-(3-(6-amino-5-(2(methyl)(nitroso)amino)ethoxy)pyrimidin-4-yl)-5-fluoro-2-methylphenyl)-4-cyclopropyl-2-fluorobenzamide]
mutagenicity ([4]; in the presence of rat S-9): not mutagenic
Enhanced Ames Test (EAT) outcome ([4]; overall conclusion of the EAT): positive; also recorded: mutagenic under sensitive metabolic conditions
increases in revertant numbers ([4]; strain TA100, presence of hamster S-9): 2 fold
increases in revertant numbers ([4]; strain TA1535, presence of hamster S-9): 3 fold
mutagenicity ([4]; without metabolic activation): not mutagenic

CCN(CC)N=O [NDEA, N-nitrosodiethylamine, reference compound]
induced mutations ([4]; strain TA100, presence of 30% rat S-9): > 2 fold
